One assay deals with T1, HiBiT-tagged IKZF1 (Homo sapiens, UniProt Q13422+Q96SW2).
T1 construct: expressed in transfected cells; host or cells: HT-1080 (ATCC CCL-121), lentiviral transduction
Put plainly: Degradation assay for IKZF1 (HiBiT tag bioluminescence assay). Conditions: HT-1080 IKZF1 HiBiT reporter cells; for DC50: read-out: HiBiT IKZF1: DC50. The class given is cell-based. The procedure: (§1) About 10,000 cells in complete DMEM cell culture media were seeded per well. Assay plates were incubated at 37° C. with 5% CO2 for hours, followed by the assessment of IKZF1 or SALL4 degradation using the Nano-Glo HiBiT Lytic Detection Reagent (Cat #N3050, Promega) according to the manufacturer's instruction. Luminescence was then measured with an EnVision plate reader (PerkinElmer) or a PHERAstar plate reader (BMG Labtech). All IKZF1 or SALL4 degradation curves were processed using Collaborative Drug Discovery Vault softwares. IKZF1 or SALL4 levels in compound-treated wells were normalized to that of DMSO control and expressed as Percent of Control (PoC, y). A four Parameter Logistic Model was used to determine the compound's EC50 and DC50, using the following equation:
(§2) A=Ymin (lowest IKZF1 or SALL4 level normalized to DMSO control in response to compound treatment, as determined by curve fit)
(§3) B=Ymax (IKZF1 or SALL4 level in DMSO control)
(§4) C=EC50 half degradation concentration
(§5) EC50=the concentration of compound when y=(Ymax−Ymin)/2
(§6) DC50=test sample concentration when IKZF1 or SALL4 readings y=50% DMSO-treated samples
(§7) y=IKZF1 or SALL4 readings after test sample treatment (normalized to IKZF1 or SALL4 readings in DMSO-treated samples)
(§8) Dmax represents the maximum percentage of IKZF1 or SALL4 protein degradation induced by compound treatment.
In general terms: HiBiT is a short tag that completes a luciferase, so light tracks the accessible tagged protein.

A further assay concerns the target T2, HiBiT-tagged SALL4 (Homo sapiens, UniProt Q96SW2+Q9UJQ4).
T2 construct: expressed in transfected cells; host or cells: HT-1080 (ATCC CCL-121), lentiviral transduction
As to the kind of experiment: Degradation assay for SALL4 (HiBiT tag bioluminescence assay). The class given is cell-based. Conditions: HT-1080 SALL4 HiBiT reporter cells; for DC50: read-out: HiBiT SALL4: DC50. The procedure: as §1, §2, §3, §4, §5, §6, §7, §8

The mark [1] stands for this setting: HT-1080, Table 2, all compounds tested on the same day.
Where [2] appears, read: Table 2, all compounds tested on the same day.
[3] abbreviates: HT-1080, Table 1, maximum percentage of protein degradation.
[4] abbreviates: Table 1, performed once with technical duplicates, some compounds tested on different days.

Read-outs that look alike come from different tables or passages of the source.

T2 sequence (Q9UJQ4 whole entry): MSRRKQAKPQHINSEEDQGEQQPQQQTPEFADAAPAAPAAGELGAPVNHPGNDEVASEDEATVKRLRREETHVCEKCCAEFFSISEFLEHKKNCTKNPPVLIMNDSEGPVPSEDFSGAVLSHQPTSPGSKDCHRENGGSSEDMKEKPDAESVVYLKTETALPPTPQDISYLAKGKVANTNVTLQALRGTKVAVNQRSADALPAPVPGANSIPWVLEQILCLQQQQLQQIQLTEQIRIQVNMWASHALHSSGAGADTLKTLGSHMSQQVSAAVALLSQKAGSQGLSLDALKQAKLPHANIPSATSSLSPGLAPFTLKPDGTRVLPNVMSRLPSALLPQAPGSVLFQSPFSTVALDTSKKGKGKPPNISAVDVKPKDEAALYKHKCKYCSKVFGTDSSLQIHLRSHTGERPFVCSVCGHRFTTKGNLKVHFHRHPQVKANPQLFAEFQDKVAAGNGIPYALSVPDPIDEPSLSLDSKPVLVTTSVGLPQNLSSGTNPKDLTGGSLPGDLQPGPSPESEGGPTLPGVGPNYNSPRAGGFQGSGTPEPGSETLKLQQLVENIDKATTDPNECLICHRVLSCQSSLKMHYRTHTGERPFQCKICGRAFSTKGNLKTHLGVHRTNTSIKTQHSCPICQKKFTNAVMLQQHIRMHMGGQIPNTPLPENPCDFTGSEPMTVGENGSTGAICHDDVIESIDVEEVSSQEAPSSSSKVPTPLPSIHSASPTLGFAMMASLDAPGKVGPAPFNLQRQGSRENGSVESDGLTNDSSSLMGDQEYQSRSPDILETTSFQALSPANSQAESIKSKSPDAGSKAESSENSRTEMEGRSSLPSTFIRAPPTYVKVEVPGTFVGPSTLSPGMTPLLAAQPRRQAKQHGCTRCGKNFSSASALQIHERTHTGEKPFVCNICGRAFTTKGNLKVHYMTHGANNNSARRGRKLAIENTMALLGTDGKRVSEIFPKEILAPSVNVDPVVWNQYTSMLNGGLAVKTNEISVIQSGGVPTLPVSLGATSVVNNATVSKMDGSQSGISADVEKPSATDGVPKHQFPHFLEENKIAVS
T2 sequence (Q96SW2 whole entry): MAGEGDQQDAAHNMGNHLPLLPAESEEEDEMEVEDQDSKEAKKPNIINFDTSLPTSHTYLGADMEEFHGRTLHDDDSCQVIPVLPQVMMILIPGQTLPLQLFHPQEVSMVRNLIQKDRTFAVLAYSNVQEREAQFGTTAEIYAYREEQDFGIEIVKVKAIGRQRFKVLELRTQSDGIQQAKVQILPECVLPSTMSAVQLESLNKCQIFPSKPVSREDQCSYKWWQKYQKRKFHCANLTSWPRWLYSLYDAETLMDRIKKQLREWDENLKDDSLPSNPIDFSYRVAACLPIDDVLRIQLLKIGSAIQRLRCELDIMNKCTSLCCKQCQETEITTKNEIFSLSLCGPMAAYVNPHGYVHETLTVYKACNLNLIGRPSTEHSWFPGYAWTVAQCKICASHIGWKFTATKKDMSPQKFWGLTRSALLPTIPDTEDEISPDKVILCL
T2 sequence (Q16531 whole entry partner): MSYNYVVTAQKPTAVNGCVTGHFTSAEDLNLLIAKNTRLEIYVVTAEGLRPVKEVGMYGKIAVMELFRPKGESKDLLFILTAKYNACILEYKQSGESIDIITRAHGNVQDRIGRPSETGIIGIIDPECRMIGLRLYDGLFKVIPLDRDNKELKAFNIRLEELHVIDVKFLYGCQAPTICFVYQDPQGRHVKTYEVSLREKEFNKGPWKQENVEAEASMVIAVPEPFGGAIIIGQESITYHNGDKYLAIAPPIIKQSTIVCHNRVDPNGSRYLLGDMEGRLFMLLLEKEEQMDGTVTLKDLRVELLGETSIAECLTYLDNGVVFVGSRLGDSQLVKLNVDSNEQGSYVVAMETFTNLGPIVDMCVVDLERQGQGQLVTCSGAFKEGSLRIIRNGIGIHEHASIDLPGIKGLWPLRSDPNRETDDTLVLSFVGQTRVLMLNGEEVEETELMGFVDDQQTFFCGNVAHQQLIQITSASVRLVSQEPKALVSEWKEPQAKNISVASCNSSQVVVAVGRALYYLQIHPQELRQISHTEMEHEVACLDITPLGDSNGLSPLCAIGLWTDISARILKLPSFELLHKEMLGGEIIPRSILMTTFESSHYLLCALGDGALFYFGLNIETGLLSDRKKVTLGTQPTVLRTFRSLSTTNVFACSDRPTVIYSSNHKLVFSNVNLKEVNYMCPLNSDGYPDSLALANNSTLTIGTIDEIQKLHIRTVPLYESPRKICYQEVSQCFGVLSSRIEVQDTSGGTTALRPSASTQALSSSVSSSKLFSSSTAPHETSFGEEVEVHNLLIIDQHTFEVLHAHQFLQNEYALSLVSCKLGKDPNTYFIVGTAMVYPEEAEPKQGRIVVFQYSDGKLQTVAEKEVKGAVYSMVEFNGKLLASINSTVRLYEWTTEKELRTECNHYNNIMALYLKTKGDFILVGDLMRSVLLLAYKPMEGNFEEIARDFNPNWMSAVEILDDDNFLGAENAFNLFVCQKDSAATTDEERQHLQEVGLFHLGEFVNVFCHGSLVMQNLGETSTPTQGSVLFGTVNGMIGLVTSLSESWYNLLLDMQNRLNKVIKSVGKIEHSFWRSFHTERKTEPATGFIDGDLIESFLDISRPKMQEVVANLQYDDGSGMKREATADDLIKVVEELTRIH
T1 sequence (Q13422 whole entry): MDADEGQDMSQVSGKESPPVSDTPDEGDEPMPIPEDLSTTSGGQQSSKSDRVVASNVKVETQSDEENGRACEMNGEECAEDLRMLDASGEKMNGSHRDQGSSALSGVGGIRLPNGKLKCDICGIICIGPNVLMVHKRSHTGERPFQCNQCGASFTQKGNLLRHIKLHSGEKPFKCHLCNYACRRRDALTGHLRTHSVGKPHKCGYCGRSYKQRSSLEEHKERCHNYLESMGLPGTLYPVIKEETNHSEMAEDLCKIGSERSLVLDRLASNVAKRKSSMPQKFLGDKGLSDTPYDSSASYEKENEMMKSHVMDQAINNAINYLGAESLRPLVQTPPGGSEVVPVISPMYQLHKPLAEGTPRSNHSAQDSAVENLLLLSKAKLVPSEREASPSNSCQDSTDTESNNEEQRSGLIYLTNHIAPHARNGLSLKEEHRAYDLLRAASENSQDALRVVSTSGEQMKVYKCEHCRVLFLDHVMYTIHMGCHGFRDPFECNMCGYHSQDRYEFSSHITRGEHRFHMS
T1 sequence (Q96SW2 whole entry): as the sequence (Q96SW2 whole entry) above
T1 sequence (Q16531 whole entry partner): as the sequence (Q16531 whole entry partner) above

Regarding `N#Cc1ccc(N2CCN(Cc3ccc(Cc4ccc5c6c(cccc46)C(=O)N5C4CCC(=O)NC4=O)c(F)c3)CC2)c(F)c1` (stereo not shown) [Compound 18], the Dmax on HiBiT-tagged IKZF1 (setting [1]) was 96.1%; on HiBiT-tagged SALL4 (setting [1]), 80.5%. Moreover, the 50% degradation concentration (DC50) is 0.014 nM at HiBiT-tagged IKZF1 (setting [2]) and less than 0.3 nM on HiBiT-tagged SALL4 (setting [2]).

`N#Cc1ccc(N2CCN(Cc3ccc(Cc4ccc5c6c(ccc(F)c46)C(=O)N5C4CCC(=O)NC4=O)cc3)CC2)c(F)c1` (stereo not shown) [Compound 14]: the Dmax at HiBiT-tagged IKZF1 (setting [1]) was determined as 89.9%; on HiBiT-tagged SALL4 (setting [1]) it was 79.3%. In addition, the values for the DC50 on HiBiT-tagged IKZF1 (setting [2]) and at HiBiT-tagged SALL4 (setting [2]) were 1 nM and 2 nM, respectively.

With `N#Cc1ccc2c(c1)OC[C@H]1CN(Cc3ccc(Cc4ccc5c6c(cccc46)C(=O)N5C4CCC(=O)NC4=O)cc3)CCN21` (stereo partly shown) [Compound 3], the greatest degradation seen (Dmax) was 93.3% at HiBiT-tagged IKZF1 (setting [3]) and 68% on HiBiT-tagged SALL4 (setting [3]). The DC50 at HiBiT-tagged IKZF1 (setting [4]) was determined as 0.038 nM; at HiBiT-tagged SALL4 (setting [4]), 2.4 nM.

Take `O=C1CCC(N2C(=O)c3cc(F)cc4c(Cc5ccc(CN6CCC(N7CCOCC7)CC6)cc5F)ccc2c34)C(=O)N1` (stereo not shown) [Compound 11]: the Dmax at HiBiT-tagged IKZF1 (setting [3]) amounted to 66.2%; at HiBiT-tagged SALL4 (setting [3]) it was 33.9%. In addition, the half-maximal degradation concentration (DC50) is 2.19 nM at HiBiT-tagged IKZF1 (setting [4]) and greater than 10000 nM on HiBiT-tagged SALL4 (setting [4]).

On to `N#Cc1cnc2c(c1)OC[C@H]1CN(Cc3ccc(Cc4ccc5c6c(cccc46)C(=O)N5C4CCC(=O)NC4=O)c(F)c3)CCN21` (stereo partly shown) [Compound 4], for which the greatest degradation seen (Dmax) at HiBiT-tagged IKZF1 (setting [3]) was 93.5%; at HiBiT-tagged SALL4 (setting [3]) it was 68.6%. In addition, the results for the DC50 on HiBiT-tagged IKZF1 (setting [4]) and at HiBiT-tagged SALL4 (setting [4]) were 0.026 nM and 1 nM, respectively.

As to `N#Cc1ccc(N2CCN(Cc3ccc(Cc4ccc5c6c(cc(Cl)cc46)C(=O)N5C4CCC(=O)NC4=O)cc3)CC2)c(F)c1` (stereo not shown) [Compound 17], the Dmax at HiBiT-tagged IKZF1 (setting [1]) came out at 41.1%; on HiBiT-tagged SALL4 (setting [1]), 11.4%. Also, the DC50 on HiBiT-tagged IKZF1 (setting [2]) was greater than 10 nM; on HiBiT-tagged SALL4 (setting [2]) it was greater than 10000 nM.

For `O=C1CCC(N2C(=O)c3cc(F)cc4c(Cc5ccc(CN6CCC7(CCCO7)CC6)cc5F)ccc2c34)C(=O)N1` (stereo not shown) [Compound 7], the maximal degradation (Dmax) is 86.3% at HiBiT-tagged IKZF1 (setting [3]) and 45.4% at HiBiT-tagged SALL4 (setting [3]). Also, the DC50 was 0.13 nM at HiBiT-tagged IKZF1 (setting [4]) and greater than 10000 nM on HiBiT-tagged SALL4 (setting [4]).

`N#Cc1ccc2c(c1)OC[C@H]1CN(Cc3ccc(Cc4ccc5c6c(cc(F)cc46)C(=O)N5C4CCC(=O)NC4=O)cn3)CCN21` (stereo partly shown) [Compound 2]: the greatest degradation seen (Dmax) at HiBiT-tagged IKZF1 (setting [3]) is 91.8%; at HiBiT-tagged SALL4 (setting [3]), 53.2%. The DC50 on HiBiT-tagged IKZF1 (setting [4]) turned out to be 0.022 nM; on HiBiT-tagged SALL4 (setting [4]), 400 nM.

As to `O=C1CCC(N2C(=O)c3cc(F)cc4c(Cc5ccc(CN6CC(N7CCOCC7)C6)cc5F)ccc2c34)C(=O)N1` (stereo not shown) [Compound 6], the Dmax amounted to 74.6% on HiBiT-tagged IKZF1 (setting [3]) and 33.7% at HiBiT-tagged SALL4 (setting [3]). The DC50 on HiBiT-tagged IKZF1 (setting [4]) was 0.74 nM; on HiBiT-tagged SALL4 (setting [4]), greater than 10000 nM.

As for `N#Cc1ccc(N2CCN(Cc3ccc(Cc4ccc5c6c(c(F)ccc46)C(=O)N5C4CCC(=O)NC4=O)cc3)CC2)c(F)c1` (stereo not shown) [Compound 15], the values for the Dmax on HiBiT-tagged IKZF1 (setting [1]) and on HiBiT-tagged SALL4 (setting [1]) were 60.1% and 28.5%, respectively. In addition, the half-maximal degradation concentration (DC50) on HiBiT-tagged IKZF1 (setting [2]) is 39.1 nM; at HiBiT-tagged SALL4 (setting [2]), greater than 10000 nM.

As a reminder, the Dmax is the greatest extent of degradation seen. For orientation: DC50 means the concentration giving 50% degradation.

The record behind these values is patent US20240360150A1, “ISOINDOLINONE COMPOUNDS AND USES THEREOF” (HANGZHOU GLUBIO PHARMACEUTICAL CO. LTD., priority 2021, published 2024).
